Our source for the EC50 values is patent US8815849B2, “Hetero-bicyclic derivatives as HCV inhibitors” (Janssen R&D Ireland, priority 2010, dated 2014).

Each structure is given as a SMILES string.

For one test, the system named is HCV replicon (Huh-Luc cells, NS3-NS5B regions of HCV type 1b). In words: HCV replicon assay (Huh-7 luc/neo, luciferase readout). In kind it is cell-based. The conditions noted are these: Hepatitis C virus, Huh-7, 72 h, Huh-Luc replicon cells, three days incubation, luciferase activity; average if tested more than once; read-out: HCV-REP-HUH7LUC_EC50. The text has this:
The in vitro antiviral activity against HCV of the compounds of formula I can be tested in a cellular HCV replicon system based on Lohmann et al. (1999) Science 285:110-113, with the further modifications described by Krieger et al. (2001) Journal of Virology 75: 4614-4624 (incorporated herein by reference), which is further exemplified in the examples section. This model, while not a complete infection model for HCV, is widely accepted as the most robust and efficient model of autonomous HCV RNA replication currently available. It will be appreciated that it is important to distinguish between compounds that specifically interfere with HCV functions from those that exert cytotoxic or cytostatic effects in the HCV replicon model, and as a consequence cause a decrease in HCV RNA or linked reporter enzyme concentration. Assays are known in the field for the evaluation of cellular cytotoxicity based for example on the activity of mitochondrial enzymes using fluorogenic redox dyes such as resazurin. Furthermore, cellular counter screens exist for the evaluation of non-selective inhibition of linked reporter gene activity, such as firefly luciferase. Appropriate cell types can be equipped by stable transfection with a luciferase reporter gene whose expression is dependent on a constitutively active gene promoter, and such cells can be used as a counter-screen to eliminate non-selective inhibitors.
The compounds of formula (I) were examined for inhibitory activity in the HCV replicon. This cellular assay is based on a bicistronic expression construct, as described by Lohmann et al. (1999) Science vol. 285 pp. 110-113 with modifications described by Krieger et al. (2001) Journal of Virology 75: 4614-4624, in a multi-target screening strategy.
The assay utilized the stably transfected cell line Huh-7 luc/neo (hereafter referred to as Huh-Luc). This cell line harbors an RNA encoding a bicistronic expression construct comprising the wild type NS3-NS5B regions of HCV type 1b translated from an
Internal Ribosome Entry Site (IRES) from encephalomyocarditis virus (EMCV), preceded by a reporter portion (FfL-luciferase), and a selectable marker portion (neo^R, neomycine phosphotransferase). The construct is flanked by 5′ and 3′ NTRs (non-translated regions) from HCV type 1b. Continued culture of the replicon cells in the presence of G418 (neo^R) is dependent on the replication of the HCV RNA. The stably transfected replicon cells that express HCV RNA, which replicates autonomously and to high levels, encoding inter alia luciferase, were used for screening the antiviral compounds.
The replicon cells were plated in 384 well plates in the presence of the test and control compounds which were added in various concentrations. Following an incubation of three days, HCV replication was measured by assaying luciferase activity (using standard luciferase assay substrates and reagents and a Perkin Elmer ViewLux™ ultraHTS microplate imager). Replicon cells in the control cultures have high luciferase expression in the absence of any inhibitor. The inhibitory activity of the compound on luciferase activity was monitored on the Huh-Luc cells, enabling a dose-response curve for each test compound. EC50 values were then calculated, which represent the amount of compound required to decrease the level of detected luciferase activity by 50%, or more specifically, to reduce the ability of the genetically linked HCV replicon RNA to replicate.
Where a compound of formula (I) was tested more than once in the replicon assay, the average of all test results is given in this Table 1.
In the case of `COC(=O)N[C@H](C(=O)N1CCCC1c1cc(=O)c2ncc(-c3ccc4cc(-c5cnc([C@@H]6CCCN6C(=O)[C@@H](NC(=O)OC)C(C)C)[nH]5)ccc4c3)cc2[nH]1)C(C)C` (stereo partly shown) [Compound 97], the EC50 came to 0.24 nM.

For `COC(=O)NC(C(=O)N1CCCC1c1cc(=O)c2ccc(-c3ccc4cc(-c5cnc([C@@H]6CCCN6C(=O)[C@@H](NC(=O)OC)C(C)C)[nH]5)ccc4c3)cc2[nH]1)C1CCOCC1` (stereo partly shown) [Compound 13-A4], the EC50 worked out at 1.2 nM.

Take `COC(=O)N[C@H](C(=O)N1CCC[C@H]1c1ncc(-c2ccc3cc(-c4ccc5c(=O)cc(C6CCCN6C(=O)[C@@H](NC(=O)OC)[C@@H](C)OC)[nH]c5c4)ccc3c2)[nH]1)C(C)C` (stereo partly shown) [Compound 13-A1]: the EC50 is 0.1 nM.

In the case of `COC(=O)N[C@H](C(=O)N1CCCC1c1cc(=O)c2cc(-c3ccc4cc(-c5cnc([C@@H]6CCCN6C(=O)[C@@H](NC(=O)OC)[C@@H](C)OC)[nH]5)ccc4c3)ccc2[nH]1)[C@@H](C)OC` (stereo partly shown) [Compound 23], the EC50 was found to be 0.47 nM.

As for `CC[C@@H](C)[C@H](NC(=O)OC)C(=O)N1CCCC1c1cc(=O)c2ccc(-c3ccc4cc(-c5cnc([C@@H]6CCCN6C(=O)[C@@H](NC(=O)OC)C(C)C)[nH]5)ccc4c3)cc2[nH]1` (stereo partly shown) [Compound 13-A5], the EC50 was found to be 0.062 nM.

With `COC(=O)N[C@H](C(=O)N1CCC[C@H]1c1ncc(-c2ccc3cc(-c4ccc5c(=O)[nH]c([C@@H]6CCCN6C(=O)[C@H](NC(=O)OC6CCC6)c6ccccc6)nc5c4)ccc3c2)[nH]1)C(C)C` [Compound 44-4], the EC50 was 9.8 nM.

As for `COC(=O)N[C@H](C(=O)N1CCCC1c1cc2ccc(-c3ccc4cc(-c5cnc([C@@H]6CCCN6C(=O)[C@@H](NC(=O)OC)C(C)C)[nH]5)ccc4c3)cc2c(=O)[nH]1)C(C)C` (stereo partly shown) [Compound 20], the EC50 was determined as 0.79 nM.

On to `COC(=O)N[C@H](C(=O)N1CCCC1c1[nH]c2cc(-c3ccc4cc(-c5cnc([C@@H]6CCCN6C(=O)[C@@H](NC(=O)OC)C(C)C)[nH]5)ccc4c3)ccc2c(=O)c1C)C(C)C` (stereo partly shown) [Compound 102b], for which the EC50 is 20.6 nM.

With `COC(=O)N[C@H](C(=O)N1CCC[C@H]1c1ncc(-c2ccc3cc(-c4ccc5c(=O)cc(C6C[C@@H]7CCCC[C@@H]7N6C(=O)[C@@H](NC(=O)OC)C(C)C)[nH]c5c4)ccc3c2)[nH]1)C(C)C` (stereo partly shown) [Compound 119a], the EC50 turned out to be 0.033 nM.

`COC[C@H](NC(=O)OC(C)(C)C)C(=O)N1CCCC1c1cc(=O)c2ccc(-c3ccc4cc(-c5cnc([C@@H]6CCCN6C(=O)[C@@H](NC(=O)OC)C(C)C)[nH]5)ccc4c3)cc2[nH]1` (stereo partly shown) [Compound 13-A7]: the EC50 was 0.053 nM.

Take `COC(=O)N[C@H](C(=O)N1CCC[C@H]1c1ncc(-c2ccc3cc(-c4ccc5c(=O)[nH]c([C@@H]6CCCN6C(=O)[C@H](NC(=O)OC6CCCC6)c6ccccc6)nc5c4)ccc3c2)[nH]1)C(C)C` [Compound 44-3]: the EC50 was 1 nM.

On to `COCC[C@H](NC(=O)OC)C(=O)N1CCCC1c1cc(=O)c2ccc(-c3ccc4cc(-c5cnc([C@@H]6CCCN6C(=O)[C@@H](NC(=O)OC)C(C)C)[nH]5)ccc4c3)cc2[nH]1` (stereo partly shown) [Compound 13-A6], for which the EC50 was 0.5 nM.

Turning to `CC[C@H](NC(=O)OC)C(=O)N1CCCC1c1cc(=O)c2ccc(-c3ccc4cc(-c5cnc([C@@H]6CCCN6C(=O)[C@@H](NC(=O)OC)C(C)C)[nH]5)ccc4c3)cc2[nH]1` (stereo partly shown) [Compound 13-A2], the EC50 amounted to 0.079 nM.

Turning to `COC[C@H](NC(=O)OC)C(=O)N1CCCC1c1cc(=O)c2ccc(-c3ccc4cc(-c5cnc([C@@H]6CCCN6C(=O)[C@@H](NC(=O)OC)C(C)C)[nH]5)ccc4c3)cc2[nH]1` (stereo partly shown) [Compound 13-A8], the EC50 was 0.18 nM.

Staying with this test, now noted: Hepatitis C virus, Huh-7, 72 h, read-out: HCV-REP-HUH7LUC_EC50 (nM), Huh-Luc replicon cells, three days incubation, luciferase activity; average if tested more than once.
Turning to `COC(=O)N[C@H](C(=O)N1CCCC1c1cc2ccc(-c3ccc4cc(-c5cnc([C@@H]6CCCN6C(=O)[C@@H](NC(=O)OC)[C@@H](C)OC)[nH]5)ccc4c3)cc2c(=O)[nH]1)[C@@H](C)OC` (stereo partly shown) [Compound 20-A], the EC50 was 0.2 nM.

Staying with this test, now noted: Huh-Luc replicon cells, three days incubation, luciferase activity; average if tested more than once; read-out: HCV-REP-HUH7LUC_EC50.
As to `CC[C@H](C)[C@H](NC(=O)OC)C(=O)N1CCCC1c1cc(=O)c2cc(-c3ccc4cc(-c5cnc([C@@H]6CCCN6C(=O)[C@@H](NC(=O)OC)[C@@H](C)CC)[nH]5)ccc4c3)ccc2[nH]1` (single isomer, unassigned) [Compound 24a], the EC50 came out at 9.6 nM.

As for `CC[C@H](C)[C@H](NC(=O)OC)C(=O)N1CCCC1c1cc(=O)c2cc(-c3ccc4cc(-c5cnc([C@@H]6CCCN6C(=O)[C@@H](NC(=O)OC)[C@@H](C)CC)[nH]5)ccc4c3)ccc2[nH]1` (stereo partly shown) [Compound 24], the EC50 stood at 0.048 nM.

On to `COC(=O)N[C@H](C(=O)N1CCCC1c1cc(=O)c2cc(-c3ccc4cc(-c5cnc([C@@H]6CCCN6C(=O)[C@@H](NC(=O)OC)[C@@H](C)OC)[nH]5)ccc4c3)ccc2[nH]1)[C@@H](C)OC` (stereo partly shown) [Compound 23b], for which the EC50 stood at 0.34 nM.

With `COC(=O)N[C@H](C(=O)N1CCCC1c1cc(=O)c2cc(-c3ccc4cc(-c5cnc([C@@H]6CCCN6C(=O)[C@@H](NC(=O)OC)C(C)C)[nH]5)ccc4c3)ccc2[nH]1)C(C)C` (single isomer, unassigned) [Compound 22a], the EC50 was found to be 3.4 nM.

`COC(=O)N[C@H](C(=O)N1CCCC1c1cc(=O)c2ccc(-c3ccc4cc(-c5cnc([C@@H]6CCCN6C(=O)[C@@H](NC(=O)OC)C(C)C)[nH]5)ccc4c3)cc2[nH]1)C(C)C` (stereo partly shown) [Compound 13]: the EC50 is 0.028 nM.

Take `COC(=O)N[C@H](C(=O)N1CCCC1c1[nH]c2cc(-c3ccc4cc(-c5cnc([C@@H]6CCCN6C(=O)[C@@H](NC(=O)OC)C(C)C)[nH]5)ccc4c3)ccc2c(=O)c1Cl)C(C)C` (single isomer, unassigned) [Compound 106b]: the EC50 worked out at 20.6 nM.

As to `COC(=O)N[C@H](C(=O)N1CCCC1c1cc(=O)c2cc(-c3ccc4cc(-c5cnc([C@@H]6CCCN6C(=O)[C@@H](NC(=O)OC)C(C)C)[nH]5)ccc4c3)ccc2[nH]1)C(C)C` (stereo partly shown) [Compound 22], the EC50 was determined as 0.075 nM.

Turning to `COC(=O)N[C@H](C(=O)N1CCCC1c1cc(=O)c2ccc(-c3ccc4cc(-c5cnc([C@@H]6CCCN6C(=O)[C@@H](NC(=O)OC)C(C)C)[nH]5)ccc4c3)cc2[nH]1)C(C)C` (stereo partly shown) [Compound 13a], the EC50 stood at 0.91 nM.

On to `COC(=O)N[C@H](C(=O)N1CCCC1c1[nH]c2cc(-c3ccc4cc(-c5cnc([C@@H]6CCCN6C(=O)[C@@H](NC(=O)OC)C(C)C)[nH]5)ccc4c3)ccc2c(=O)c1Cl)C(C)C` (single isomer, unassigned) [Compound 106a], for which the EC50 is 0.12 nM.

Regarding `COC(=O)N[C@H](C(=O)N1CCCC1c1cc(=O)c2cc(-c3ccc4cc(-c5cnc([C@@H]6CCCN6C(=O)[C@@H](NC(=O)OC)C(C)C)[nH]5)ccc4c3)ccc2[nH]1)C(C)C` (single isomer, unassigned) [Compound 22b], the EC50 was 0.052 nM.
